Consider one compound from patent publication US12629401B2, “Method for preparing ginseng extract enriched with rare ginsenosides and applications thereof” (priority 2023, dated 2026).

This test relates to SD1347 nematodes. Nature of the test: Mitochondrial health test: muscle fragmentation score by confocal microscopy. Format: in vivo, C. hidradenitis elegans nematodes. The conditions noted are these: 100 μg/mL JadeAging, 11.4 μg/mL urolithin A. The text has this: Skeletal sarcopenia is an age-related loss of muscle and strength. Muscle mitochondrial dysfunction is observed at the onset of skeletal sarcopenia, followed by alterations in skeletal muscle segmental architecture, ultimately leading to decreased movement. In recent years, clinical studies have shown that urolithin A improves mitochondrial health and alleviates muscle decline due to aging. In the present study, the fluorescently labeled myocyte nuclei and mitochondria of […] were used to assess whether JadeAging could ameliorate age-related dysfunction.
METHODS: SD1347 C. hidradenitis elegans nematodes were treated with JadeAging and fluorescently labeled with muscle nuclei and mitochondria, and muscle and mitochondrial health were assessed using confocal microscopy on days 2, 9, and 12 of the adult stage of C. hidradenitis elegans. […]
Maximum intensity projected confocal images of adult […] animals on days 2, 9 and 12 are shown in FIG. 11, all images are from the “head” region. Healthy muscles, i.e., those of the blank group (VC group), are marked by arrows in the day 2 images and are uniformly streaked; those of the blank group (VC group) are marked by arrows in the day 12 images and show uneven fluorescence. […]

In the case of `O=c1oc2cc(O)ccc2c2ccc(O)cc12` [urolithin A], the “protective effect against age-related skeletal muscle reduction (mean fragmentation scores)” value (FIG. 13) is “significant protective effect”. The “mitochondrial health (change of fragmentation score distribution with age)” value (days 2, 9, 12, FIG. 12) is on record as “superior to that of the blank group (VC group)”.
